“Also recorded” adds a separate entry of the source.
The substances below were run on NCI-60 cell lines.
Assay type: cell-based, human

| Substance | Cell Line (NCI-60 cell line the peptide is associated with) | Cell Line (NCI-60 cell line the peptide and its motif are associated with) | Cell Line the peptide is associated with (peptide recovered from phage library selection on this NCI-60 cell line) | Cell Line with which the peptide (and its tripeptide motif) is associated |
| --- | --- | --- | --- | --- |
| SSRGGSS | MALME-3M Melanoma |  |  |  |
| LGGLGIH | SF-295 CNS |  |  |  |
| PPRAVTN |  | UACC62 Melanoma |  |  |
| AAIVGVS |  |  | MDA-MB-231 Breast |  |
| WRGGLDR |  |  | MCF-7 Breast |  |
| GSVVSSW |  |  | ACHN Renal |  |
| ALVSVAG | SF-295 CNS |  |  |  |
| AGGRLGL | SF-268 CNS |  |  |  |
| LRYWAAV |  | SK-MEL-2 Melanoma |  |  |
| GRLWGFW |  |  |  | H226-Lung |
| PLRSVWS | SF-268 CNS |  |  |  |
| VPSGSVR |  |  | NCI/ADR-RES Breast |  |
| SSGSSNG |  |  |  | K-562-Leukemia |
| MRYELRS |  |  | SN12C Renal |  |
| AEYGRVL |  | M14 Melanoma |  |  |
| HGGRARL | HT-29 Colon |  |  |  |
| LERAVRT | HT-29 Colon |  |  |  |
| SRLSYYA | KM-12C Colon |  |  |  |
| YLGRRVS | SW620-Colon |  |  |  |
| GRGGSGY | HT-29 Colon |  |  |  |
| VTDGAGQ | SF-268 CNS |  |  |  |
| DVIARGW |  | UACC 257 Melanoma |  |  |

| Substance | Cell Line (NCI-60 cell line the peptide is associated with) | Cell Line (NCI-60 cell line the peptide and its motif are associated with) | Cell Line the peptide is associated with (peptide recovered from phage library selection on this NCI-60 cell line) | Cell Line with which the peptide (and its tripeptide motif) is associated |
| --- | --- | --- | --- | --- |
| LRSYAWS | SNB-19 CNS; also recorded: SF-539 CNS |  |  |  |
| SGGSVGF |  |  | MDA-MB-231 Breast |  |
| IGVLASA |  | SK-MEL-28 Melanoma |  |  |
| PLLREVG |  |  | SN12C Renal |  |
| GSVLGDY | COLO-205-Colon |  |  |  |
| LFGSSVS |  |  | SN12C Renal |  |
| CRGSIGA |  |  | BT-549 Breast |  |
| GHSERLS |  |  | T-47D Breast |  |
| RVARGDR | KM-12C Colon |  |  |  |
| LAGLVSG | HT-29 Colon |  |  |  |
| GRVDPVD |  |  | T-47D Breast |  |
| RQLVSPA | HT-29 Colon |  |  |  |
| LGSSRVL |  |  |  | Hop-92-Lung |
| LELGRLL |  |  |  | HL-60-Leukemia |
| PSLLRGF |  | UACC62 Melanoma |  |  |
| RGLGRPV |  |  | NCI/ADR-RES Breast |  |
| GSGVRVS |  | SK-MEL-28 Melanoma |  |  |
| VGLRVRF |  |  | BT-549 Breast |  |
| ARGVLLM |  |  |  | CCRF-CEM Leukemia |
| VLRSIPS | SF-295 CNS |  |  |  |
| GWHGPSH |  |  |  | A549-Lung |
| GGRLRAV | SNB-19 CNS; also recorded: SF-539 CNS |  |  |  |

| Substance | Cell Line (NCI-60 cell line the peptide is associated with) | Cell Line (NCI-60 cell line the peptide and its motif are associated with) | Cell Line the peptide is associated with (peptide recovered from phage library selection on this NCI-60 cell line) | Cell Line with which the peptide (and its tripeptide motif) is associated |
| --- | --- | --- | --- | --- |
| AAVGGRV |  | M14 Melanoma |  |  |
| PRGGRVA |  |  |  | Hop-92-Lung |
| LLVSLSS |  |  | RXF393 Renal |  |
| FRASSEV |  |  |  | Hop-62-Lung |
| RASCFWD |  |  | SN12C Renal |  |
| GVSIYDL |  |  | SN12C Renal |  |
| RSSSSTR | SNB-75 CNS |  |  |  |
| GRLAKSI |  | UACC 257 Melanoma |  |  |
| VGIGAGG |  |  | T-47D Breast |  |
| LWLRSRE |  | UACC 257 Melanoma |  |  |
| SSLLSSL |  | SK-MEL-2 Melanoma |  |  |
| ARGRGSQ |  | PC3 Prostate |  |  |
| SSGGVLG |  |  |  | H460-Lung |
| IDLVSPG |  | OVCAR-8 Ovarian |  |  |
| PATRGSV |  |  |  | Hop-92-Lung |
| LSSGLVS |  |  |  | H460-Lung |
| YWFIGLG |  |  |  | EKVX-Lung |
| GAGRFPH |  | 786-0 Renal |  |  |
| ARGRDEG |  |  | UO31 Renal |  |
| MQLRGAV |  | OVCAR-4 Ovarian |  |  |
| REGGSDT |  |  | NCI/ADR-RES Breast |  |
| LVGSSRV |  | SK-OV-3-3 Ovarian |  |  |

| Substance | Cell Line (NCI-60 cell line the peptide is associated with) | Cell Line (NCI-60 cell line the peptide and its motif are associated with) | Cell Line the peptide is associated with (peptide recovered from phage library selection on this NCI-60 cell line) | Cell Line with which the peptide (and its tripeptide motif) is associated |
| --- | --- | --- | --- | --- |
| GDLRVSV |  |  | UO31 Renal |  |
| WAGLSPS |  |  |  | Hop-92-Lung |
| GEGSGSA |  |  | MDA-MB-435-Breast |  |
| AGLSGGT |  |  |  | EKVX-Lung |
| AKLGSVY |  |  |  | H226-Lung |
| LRVSRGL |  |  | TK-10 Renal |  |
| MERVAGR |  |  | SN12C Renal |  |
| NRSSGRR |  |  |  | SR Leukemia |
| GVGGGAG |  |  | MDA-MB-435-Breast |  |
| AGSIALR |  |  |  | HL-60-Leukemia |
| LRARGGH | HT-29 Colon |  |  |  |
| GGLSPHR |  |  |  | H460-Lung |
| VSGDGGS | SNB-75 CNS |  |  |  |
| GAGGGVG |  |  | MDA-MB-435-Breast |  |
| DQQEAGS |  | 786-0 Renal |  |  |
| LAAGGEL |  |  |  | RPMI-8226-Leukemia |
| RREGLRS |  | OVCAR-3 Ovarian |  | H522-Lung |
| HLRGRGV |  |  |  | EKVX-Lung |
| GSSLHLL |  |  |  | RPMI-8226-Leukemia |
| MRPGLRS |  |  | MDA-MB-231 Breast |  |
| AGVFAVS |  |  |  | HL-60-Leukemia |
| IDLGRVN |  | SK-MEL-5 Melanoma |  |  |

| Substance | Cell Line (NCI-60 cell line the peptide is associated with) | Cell Line (NCI-60 cell line the peptide and its motif are associated with) | Cell Line the peptide is associated with (peptide recovered from phage library selection on this NCI-60 cell line) | Cell Line with which the peptide (and its tripeptide motif) is associated |
| --- | --- | --- | --- | --- |
| PAGRMLS |  | SK-MEL-2 Melanoma |  |  |
| RVRGVLD |  |  | BT-549 Breast |  |
| AGRHLDA |  |  | HS 578 T Breast |  |
| LEVGRLF |  | SK-OV-3-3 Ovarian |  |  |
| RASIGIE |  | UACC 257 Melanoma |  |  |
| AASGSYY | HT-29 Colon |  |  |  |
| EPDGVRS |  |  |  | CCRF-CEM Leukemia |
| LDRSGGL | HCT-116 Colon |  |  |  |
| DSGLVGG | LOX-IMVI Melanoma |  |  |  |
| LLSILKA |  | IGROV1 Ovarian |  |  |
| SLRSGIV |  |  |  | EKVX-Lung |
| LYLLSSA |  | SK-MEL-5 Melanoma |  |  |
| RAGSRYI |  | SK-MEL-28 Melanoma |  |  |
| RLRVSVR |  |  | CAIK-1 Renal |  |
| FSSKRGV |  |  |  | RPMI-8226-Leukemia |
| SVLGSSL |  |  |  | H460-Lung |
| RVSRAGG |  | PC3 Prostate |  |  |
| SVTGSVG |  | IGROV1 Ovarian |  |  |
| FDRGVEA |  |  |  | K-562-Leukemia |
| MSARGIL |  | SK-OV-3-3 Ovarian |  |  |
| GVLLWRP |  | UACC62 Melanoma |  |  |
| TRGDAVS | SF-295 CNS |  |  |  |

| Substance | Cell Line (NCI-60 cell line the peptide is associated with) | Cell Line (NCI-60 cell line the peptide and its motif are associated with) | Cell Line the peptide is associated with (peptide recovered from phage library selection on this NCI-60 cell line) | Cell Line with which the peptide (and its tripeptide motif) is associated |
| --- | --- | --- | --- | --- |
| TGLLRLY |  |  | RXF393 Renal |  |
| WRVRSSG | HCT-15 Colon |  |  |  |
| GSGHSFA | KM-12C Colon |  |  |  |
| PFPARSS |  |  |  | H23-Lung |
| RAVGRQL |  | OVCAR-5 Ovarian |  |  |
| ARSSIVR | SF-268 CNS |  |  |  |
| SARLSHV |  | UACC 257 Melanoma |  |  |
| DWRRRAV | HCT-15 Colon |  |  |  |
| AVALGGS |  | UACC 257 Melanoma |  |  |
| LLGAGTP |  | IGROV1 Ovarian |  |  |
| WWGLGWL | HCC-2998-Colon |  |  |  |
| GAGRGDR | SF-295 CNS |  |  |  |
| AGRPRAT | HCT-116 Colon |  |  |  |
| AVYRAGR |  |  |  | H522-Lung |
| RLLSAFG | HCT-15 Colon |  |  |  |
| MPGSSRP |  |  | RXF393 Renal |  |
| DVWVAVS |  | OVCAR-4 Ovarian |  |  |
| SLRSDGA | HCT-15 Colon |  |  |  |
| SFAGRIL |  |  | T-47D Breast |  |
| GGLVKRL |  | SK-MEL-2 Melanoma |  |  |
| VLTRAST | HCC-2998-Colon |  |  |  |
| PRGSLFA |  |  | UO31 Renal |  |

From patent US7781565B2 (priority 2006, dated 2010)
